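Method: 48-hour compound exposure of cells in 96-well plates, five concentrations, linear interpolation of endpoints. At the GI50, growth is halved. TGI marks complete inhibition of growth.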
Assays:
Test in all cases: DTP human tumour cell line panel, 48 h
[1] = test system: T-47D breast
[2] = test system: KM12 colon
[3] = test system: NCI-H460 lung
[4] = test system: HT29 colon
[5] = test system: SF-539 CNS
[6] = test system: HS 578T breast
[7] = test system: SF-295 CNS
[8] = test system: MOLT-4 leukemia
[9] = test system: SK-MEL-5 melanoma
[10] = test system: MDA-MB-435
[11] = test system: MCF7 breast
[12] = test system: A498 renal
[13] = test system: BT-549 breast
[14] = test system: MDA-MB-231 breast
[15] = test system: TK-10 renal
[16] = test system: OVCAR-8 ovarian
[17] = test system: HCT-15 colon
[18] = test system: OVCAR-4 ovarian
[19] = test system: HOP-92 NSCLC
[20] = test system: RPMI-8226 leukemia
[21] = test system: M14 melanoma
[22] = test system: OVCAR-5 ovarian
[23] = test system: CCRF-CEM leukemia
[24] = test system: MALME-3M melanoma
[25] = test system: HOP-62 NSCLC
[26] = test system: SF-268 CNS
[27] = test system: COLO 205 colon
[28] = test system: IGROV1 ovarian
[29] = test system: HCT-116 colon
[30] = test system: UACC-62 melanoma
[31] = test system: UO-31 renal
[32] = test system: DU-145 prostate
[33] = test system: PC-3 prostate
[34] = test system: ACHN renal
[35] = test system: NCI/ADR-RES ovarian
[36] = test system: LOX IMVI melanoma
[37] = test system: CAKI-1 renal
[38] = test system: SK-OV-3 ovarian
[39] = test system: SNB-75 CNS
[40] = test system: A549 NSCLC
[41] = test system: SNB-19 CNS
[42] = test system: 786-0 renal
[43] = test system: OVCAR-3 ovarian
[44] = test system: HCC-2998 colon
[45] = test system: UACC-257 melanoma
[46] = test system: SK-MEL-2 melanoma
[47] = test system: RXF 393 renal
[48] = test system: SN12C renal
[49] = test system: SK-MEL-28 melanoma
[50] = test system: SR leukemia
[51] = test system: NCI-H226 lung
[52] = test system: K-562 leukemia
[53] = test system: U251 CNS
[54] = test system: NCI-H522 lung
[55] = test system: SW-620 colon
[56] = test system: NCI-H23 lung
[57] = test system: HL-60(TB) leukemia

## O=C1NC(=NCc2ccccc2)S/C1=C\c1ccc2ncccc2c1
[1]
  GI50: > 25 µM
  TGI: > 25 µM
[2]
  GI50: > 25 µM
  TGI: > 25 µM
[3]
  GI50: > 25 µM
  TGI: > 25 µM
[4]
  GI50: > 25 µM
  TGI: > 25 µM
[5]
  GI50: > 25 µM
  TGI: > 25 µM
[6]
  GI50: > 25 µM
  TGI: > 25 µM
[7]
  GI50: > 25 µM
  TGI: > 25 µM
[8]
  GI50: > 25 µM
  TGI: > 25 µM
[9]
  GI50: > 25 µM
  TGI: > 25 µM
[10]
  GI50: > 25 µM
  TGI: > 25 µM
[11]
  GI50: > 25 µM
  TGI: > 25 µM
[12]
  GI50: > 25 µM
  TGI: > 25 µM
[13]
  GI50: > 25 µM
  TGI: > 25 µM
[14]
  GI50: > 25 µM
  TGI: > 25 µM
[15]
  GI50: > 25 µM
  TGI: > 25 µM
[16]
  GI50: > 25 µM
  TGI: > 25 µM
[17]
  GI50: > 25 µM
  TGI: > 25 µM
[18]
  GI50: > 25 µM
  TGI: > 25 µM
[19]
  GI50: > 25 µM
  TGI: > 25 µM
[20]
  GI50: > 25 µM
  TGI: > 25 µM
[21]
  GI50: > 25 µM
  TGI: > 25 µM
[22]
  GI50: > 25 µM
  TGI: > 25 µM
[23]
  GI50: > 17.1 µM
  TGI: > 25 µM
[24]
  GI50: > 25 µM
  TGI: > 25 µM
[25]
  GI50: > 25 µM
  TGI: > 25 µM
[26]
  GI50: > 25 µM
  TGI: > 25 µM
[27]
  GI50: > 25 µM
  TGI: > 25 µM
[28]
  GI50: > 25 µM
  TGI: > 25 µM
[29]
  GI50: > 20.7 µM
  TGI: > 25 µM
[30]
  GI50: > 25 µM
  TGI: > 25 µM
[31]
  GI50: > 25 µM
  TGI: > 25 µM
[32]
  GI50: > 25 µM
  TGI: > 25 µM
[33]
  GI50: > 25 µM
  TGI: > 25 µM
[34]
  GI50: > 25 µM
  TGI: > 25 µM
[35]
  GI50: > 25 µM
  TGI: > 25 µM
[36]
  GI50: > 25 µM
  TGI: > 25 µM
[37]
  GI50: > 25 µM
  TGI: > 25 µM
[38]
  GI50: > 25 µM
  TGI: > 25 µM
[39]
  GI50: > 25 µM
  TGI: > 25 µM
[40]
  GI50: 24.6 µM
  TGI: > 25 µM
[41]
  GI50: > 25 µM
  TGI: > 25 µM
[42]
  GI50: > 25 µM
  TGI: > 25 µM
[43]
  GI50: > 25 µM
  TGI: > 25 µM
[44]
  GI50: > 25 µM
  TGI: > 25 µM
[45]
  GI50: > 25 µM
  TGI: > 25 µM
[46]
  GI50: > 25 µM
  TGI: > 25 µM
[47]
  GI50: > 25 µM
  TGI: > 25 µM
[48]
  GI50: > 25 µM
  TGI: > 25 µM
[49]
  GI50: > 25 µM
  TGI: > 25 µM
[50]
  GI50: 1.05 µM
  TGI: > 25 µM
[51]
  GI50: > 25 µM
  TGI: > 25 µM
[52]
  GI50: > 25 µM
  TGI: > 25 µM
[53]
  GI50: > 25 µM
  TGI: > 25 µM
[54]
  GI50: > 15.5 µM
  TGI: > 25 µM
[55]
  GI50: > 25 µM
  TGI: > 25 µM
[56]
  GI50: > 25 µM
  TGI: > 25 µM
[57]
  GI50: > 25 µM
  TGI: > 25 µM

## COc1ccc(Cn2c(Br)c3c(c2Br)-c2nc(N)sc2CC3)cc1
[1]
  GI50: 3.03 µM
  TGI: 12.8 µM
[2]
  GI50: 3.47 µM
  TGI: 20.6 µM
[3]
  GI50: 3.88 µM
  TGI: 17.3 µM
[4]
  GI50: 4.14 µM
  TGI: 13.2 µM
[5]
  GI50: 3.48 µM
  TGI: 13.5 µM
[6]
  GI50: 5.61 µM
  TGI: > 100 µM
[7]
  GI50: 3.07 µM
  TGI: 10.4 µM
[8]
  GI50: 0.962 µM
  TGI: 21.7 µM
[9]
  GI50: 4.83 µM
  TGI: 18.7 µM
[10]
  GI50: 0.407 µM
  TGI: 10.4 µM
[11]
  GI50: 3.58 µM
  TGI: 17.6 µM
[12]
  GI50: 4.66 µM
  TGI: 17.3 µM
[13]
  GI50: 9.16 µM
  TGI: 30.4 µM
[14]
  GI50: 5.97 µM
  TGI: 26.8 µM
[15]
  GI50: 3.69 µM
  TGI: 12.7 µM
[16]
  GI50: 3.43 µM
  TGI: 18.4 µM
[17]
  GI50: 2.67 µM
  TGI: 20.2 µM
[19]
  GI50: 2.24 µM
  TGI: 14 µM
[21]
  GI50: 3.96 µM
  TGI: 17.6 µM
[22]
  GI50: 16 µM
  TGI: 50.5 µM
[23]
  GI50: 0.472 µM
  TGI: 15.1 µM
[24]
  GI50: 5.22 µM
  TGI: 19.9 µM
[25]
  GI50: 6.55 µM
  TGI: 20.5 µM
[26]
  GI50: 6.15 µM
  TGI: 46.6 µM
[27]
  GI50: 2.2 µM
  TGI: 4.42 µM
[28]
  GI50: 11.6 µM
  TGI: 39.2 µM
[29]
  GI50: 2.89 µM
  TGI: 11.2 µM
[30]
  GI50: 6.97 µM
  TGI: 26 µM
[31]
  GI50: 1.59 µM
  TGI: 3.97 µM
[32]
  GI50: 6.13 µM
  TGI: 39.6 µM
[33]
  GI50: 4.76 µM
  TGI: 30.1 µM
[34]
  GI50: 3.22 µM
  TGI: 12 µM
[35]
  GI50: 4.85 µM
  TGI: 53.5 µM
[36]
  GI50: 3.35 µM
  TGI: 16.3 µM
[37]
  GI50: 2.9 µM
  TGI: 10.4 µM
[38]
  GI50: 4.01 µM
  TGI: 20 µM
[39]
  GI50: 1.92 µM
  TGI: 8.64 µM
[40]
  GI50: 4.77 µM
  TGI: 77 µM
[41]
  GI50: 8.68 µM
  TGI: > 100 µM
[42]
  GI50: 5.02 µM
  TGI: 28.6 µM
[43]
  GI50: 4.1 µM
  TGI: 15.5 µM
[44]
  GI50: 13.3 µM
  TGI: 28.2 µM
[45]
  GI50: 8.48 µM
  TGI: 22.3 µM
[46]
  GI50: 5.56 µM
  TGI: 19.9 µM
[47]
  GI50: 1.97 µM
  TGI: 5.05 µM
[48]
  GI50: 5.47 µM
  TGI: 21 µM
[49]
  GI50: 4.98 µM
  TGI: 18.1 µM
[50]
  GI50: 0.84 µM
  TGI: > 100 µM
[52]
  GI50: 2.43 µM
  TGI: 57.9 µM
[53]
  GI50: 5.15 µM
  TGI: 19 µM
[54]
  GI50: 1.59 µM
  TGI: 3.04 µM
[55]
  GI50: 3.1 µM
  TGI: 11.4 µM
[56]
  GI50: 10.6 µM
  TGI: 38.6 µM
[57]
  GI50: 2.75 µM
  TGI: 22.6 µM

Source: PubChem BioAssay (NCI)
